Data as given in the supplement of paper PMC10307832.

How the values were obtained:
Assay in all cases: relative viability (nuclei count vs DMSO), 5 days (fraction); higher = more cells survive
[1] = compound: CCCS(=O)(=O)Nc1ccc(F)c(C(=O)c2c[nH]c3ncc(-c4ccc(Cl)cc4)cc23)c1F [Vemurafenib] + CC(=O)c1c(C)c2cnc(Nc3ccc(N4CCNCC4)cn3)nc2n(C2CCCC2)c1=O [Palbociclib] (partner 0.5 µM)
Procedure, shortened: (§1)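 Relative viability equals treated-well nuclei counts divided by vehicle-well nuclei counts. Counts came from 4× images of lung cancer cell lines grown in 1536-well plates for 5 days after pin-tool dosing on the day after seeding. Dosing used one drug alone or a fixed anchor-drug dose plus five library-drug doses (not always all listed) in √10 steps, and values are medians of duplicate plates.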

[2] = compound: COc1cccc2cc(-c3nc([C@H]4CC[C@H](C(=O)O)CC4)n4ncnc(N)c34)[nH]c12 [OSI-027] + CCNC(=O)c1noc(-c2cc(C(C)C)c(O)cc2O)c1-c1ccc(CN2CCOCC2)cc1 [Luminespib] (partner 0.01 µM)
Procedure, shortened: as §1

[3] = compound: COc1cccc2cc(-c3nc([C@H]4CC[C@H](C(=O)O)CC4)n4ncnc(N)c34)[nH]c12 [OSI-027] + CS(=O)(=O)N1CCN(Cc2cc3nc(-c4cccc5[nH]ncc45)nc(N4CCOCC4)c3s2)CC1 [Pictilisib] (partner 1 µM)
Procedure, shortened: as §1

[4] = compound: COc1cccc2cc(-c3nc([C@H]4CC[C@H](C(=O)O)CC4)n4ncnc(N)c34)[nH]c12 [OSI-027] + C[C@]1(O)C[C@@H](c2nc(-c3ccc4ccc(-c5ccccc5)nc4c3)c3c(N)nccn32)C1 [Linsitinib] (partner 1 µM)
Procedure, shortened: as §1

Row | Cell Line | relative viability ([1]; first compound 0.03162 µM) | relative viability ([1]; first compound 0.1 µM) | relative viability ([1]; first compound 0.3162 µM) | relative viability ([1]; first compound 1 µM) | relative viability ([2]; first compound 0.01 µM) | relative viability ([2]; first compound 0.03162 µM) | relative viability ([2]; first compound 0.1 µM) | relative viability ([2]; first compound 0.3162 µM) | relative viability ([2]; first compound 1 µM) | relative viability ([3]; first compound 0.01 µM) | relative viability ([3]; first compound 0.03162 µM) | relative viability ([3]; first compound 0.1 µM) | relative viability ([3]; first compound 0.3162 µM) | relative viability ([3]; first compound 1 µM) | relative viability ([4]; first compound 0.01 µM) | relative viability ([4]; first compound 0.03162 µM) | relative viability ([4]; first compound 0.1 µM) | relative viability ([4]; first compound 0.3162 µM) | relative viability ([4]; first compound 1 µM)
1 | NCI-H1793 | 0.287 | 0.226 | 0.303 | 0.344 | 0.162 | 0.188 | 0.168 | 0.132 | 0.168 | 0.421 | 0.329 | 0.276 | 0.222 | 0.179 | 1.04 | 0.875 | 0.612 | 0.225 | 0.188
2 | NCI-H2405 | 0.493 | 0.536 |  | 0.58 | 0.678 | 0.647 | 0.559 | 0.479 | 0.443 | 0.406 | 0.345 | 0.292 | 0.228 | 0.242 | 0.871 | 0.81 | 0.702 | 0.404 | 0.393
3 | NCI-H727 | 0.699 | 0.631 | 0.811 | 0.661 | 0.444 | 0.328 | 0.381 | 0.318 | 0.479 | 0.3 | 0.247 | 0.351 | 0.246 | 0.319 | 0.239 | 0.344 | 0.281 | 0.229 | 0.264
4 | 201T | 0.37 | 0.309 | 0.365 | 0.402 | 1.09 | 1.06 | 1 | 0.948 | 0.485 | 0.688 | 0.683 | 0.667 | 0.553 | 0.541 | 0.932 | 0.974 | 1.01 | 0.833 | 0.936
5 | H3255 | 0.318 |  | 0.301 | 0.307 | 0.74 | 0.871 | 0.775 | 0.817 | 0.459 | 0.466 | 0.471 | 0.441 | 0.379 | 0.24 | 0.943 | 1 | 0.929 | 0.825 | 0.452
6 | NCI-H1395 | 0.553 | 0.613 | 0.523 | 0.611 | 0.717 | 0.556 | 0.621 | 0.546 | 0.439 | 0.559 | 0.705 | 0.514 | 0.458 | 0.554 | 1.18 | 1.16 | 0.924 | 0.857 | 0.77
7 | NCI-H1355 | 0.384 | 0.325 | 0.436 | 0.45 | 0.604 | 0.582 | 0.589 | 0.416 | 0.406 | 0.436 | 0.399 | 0.326 | 0.271 | 0.208 | 0.759 | 0.687 | 0.643 | 0.374 | 0.218
8 | IA-LM |  |  |  |  |  |  |  |  |  | 0.423 | 0.176 | 0.181 | 0.119 | 0.107 | 0.31 | 0.383 | 0.41 | 0.263 | 0.131
9 | HCC-827 | 0.413 |  | 0.509 | 0.511 | 0.775 | 0.75 | 0.51 | 0.337 | 0.171 | 0.9 | 0.76 | 0.891 | 0.878 | 0.483 | 0.979 | 1.03 | 0.935 | 0.943 | 0.552
10 | NCI-H1703 |  |  |  |  |  |  |  |  |  | 0.318 | 0.242 | 0.244 | 0.231 | 0.201 | 0.381 | 0.788 | 0.767 | 0.48 | 0.56
11 | NCI-H1563 |  |  |  |  | 0.479 | 0.479 | 0.455 | 0.517 | 0.481 | 0.619 | 0.625 | 0.604 | 0.631 | 0.673 | 1.13 | 1.21 | 1.1 | 0.929 | 0.677
12 | NCI-H596 |  |  |  |  | 0.96 | 0.908 | 0.988 | 0.851 | 0.574 | 0.41 | 0.435 | 0.361 | 0.317 | 0.311 | 0.981 | 0.978 | 1.03 | 0.779 | 0.483
13 | SW 900 | 0.563 | 0.43 | 0.549 | 0.488 |  | 0.153 | 0.169 | 0.171 | 0.163 |  |  |  |  |  |  |  |  |  | 
14 | EBC-1 |  |  |  |  |  |  |  |  |  | 0.344 | 0.359 | 0.299 | 0.216 | 0.238 | 0.901 | 0.886 | 0.916 | 0.78 | 0.419
15 | NCI-H1299 |  |  |  |  |  |  |  |  |  | 0.787 | 0.627 | 0.548 | 0.338 | 0.242 | 0.969 | 0.94 | 0.889 | 0.773 | 0.635
16 | NCI-H1623 |  |  |  |  | 0.511 | 0.423 | 0.322 | 0.323 | 0.202 |  |  |  |  |  |  |  |  |  | 
17 | NCI-H1650 | 0.314 | 0.255 | 0.356 | 0.351 | 0.208 | 0.234 | 0.208 | 0.214 | 0.219 | 0.551 | 0.553 | 0.474 | 0.432 | 0.347 |  |  |  |  | 
18 | HCC-366 | 0.359 | 0.332 |  | 0.321 |  |  |  |  |  | 0.179 | 0.154 | 0.165 | 0.124 | 0.0569 | 0.632 | 0.713 | 0.64 | 0.445 | 0.0575
19 | ChaGo-K-1 | 0.941 | 0.884 | 0.878 | 0.913 | 0.574 | 0.648 | 0.586 | 0.355 | 0.31 | 0.665 | 1.02 | 0.356 | 0.492 | 0.381 |  |  |  |  | 
20 | NCI-H522 | 0.822 | 0.743 | 0.857 | 1.26 | 1.2 | 1.25 | 1.19 | 0.698 | 0.58 |  |  |  |  |  |  |  |  |  | 
21 | NCI-H1648 |  | 0.277 | 0.341 | 0.294 |  |  |  |  |  |  |  |  |  |  |  |  |  |  | 
22 | A549 |  |  |  |  |  |  |  |  |  | 0.53 |  | 0.276 | 0.14 | 0.142 | 0.582 | 0.479 | 0.372 | 0.263 | 0.0989
23 | HCC-78 | 0.495 | 0.464 | 0.473 | 0.537 |  |  |  |  |  | 0.202 | 0.225 | 0.184 | 0.19 | 0.207 | 0.469 | 0.386 | 0.296 | 0.255 | 0.232
24 | Calu-6 |  |  |  |  |  |  |  |  |  | 0.94 | 0.762 | 0.655 | 0.544 | 0.319 | 0.959 | 0.87 | 0.864 | 0.673 | 0.504
